These results are taken from patent US20240279241A1, “PYRIDO[4,3-D]PYRIMIDINE COMPOUNDS CAPABLE OF INHIBITING KRAS MUTANT PROTEINS” (Redx Pharma PLC, priority 2021, published 2024).

Common to all, as to format: biochemical
For assay [1], the target named is T1, KRAS G12D (Homo sapiens, UniProt P01116, G12D).
T1 construct: Recombinant human RAS protein (2 nM)
As to the kind of experiment: HTRF nucleotide exchange assay (NEA), KRAS G12D. Conditions: recombinant human KRAS G12D aa1-188, 2 nM; lowest class = % inhibition at 10 μM. The method in brief:
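Compound binding to KRAS G12D was measured by HTRF nucleotide exchange. Recombinant human KRAS G12D (aa1-188, N-terminal 6×His-tag, 2 nM) and 2 nM Europium anti-6×His antibody were combined with compound in 5 uL assay buffer in 384-well plates for 60 minutes at room temperature, then 5 ul of 200 nM EDA-GTP-DY647P1 was added for 30 minutes before time-resolved fluorescence reading.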
In general terms: TR-FRET usually uses a lanthanide donor and a delayed reading to cut background.

Assay [2] has as its target T2, KRAS WT (Homo sapiens, UniProt P01116).
T2 construct: Recombinant human RAS protein (2 nM); aa1-188 KRAS WT
As to the kind of experiment: HTRF nucleotide exchange assay (NEA), KRAS WT. The method in brief: (§1)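 Recombinant human KRAS aa1-188 (N-terminal 6×His-tag), 2 nM for WT/G13D or 4 nM for G12C/G12S, with 2 nM Eu-anti-His antibody, preincubated with compound 60 min at RT in HEPES pH7.3 buffer; 200 nM EDA-GTP-DY647P1 then added, TR-FRET read after 30 min. IC50 by four-parameter fit.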

In assay [3] the target is T3, KRAS G12C (Homo sapiens, UniProt P01116, G12C).
T3 construct: 4 nM KRAS; aa1-188 containing the G12V, G12C, G12A or G12S amino acid substitution
As to the kind of experiment: HTRF nucleotide exchange assay (NEA), KRAS G12C. The method, boiled down: as §1

In assay [4] the target is T4, KRAS G12V (Homo sapiens, UniProt P01116, G12V).
T4 construct: 4 nM KRAS; aa1-188 containing the G12V, G12C, G12A or G12S amino acid substitution
As to the kind of experiment: HTRF nucleotide exchange assay (NEA), KRAS G12V. The method, boiled down: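 Compound binding to KRAS G12V was measured by HTRF nucleotide exchange. Recombinant human KRAS (aa1-188, G12V, N-terminal 6×His-tag and leader sequence) at 4 nM plus 2 nM Europium-labeled anti-6×His antibody were mixed with compound in assay buffer in 5 uL in 384-well plates. After 60 minutes at room temperature, 5 ul of 200 nM EDA-GTP-DY647P1 was added.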

The target in assay [5] is T5, KRAS G13D (Homo sapiens, UniProt P01116, G13D).
T5 construct: Recombinant human RAS protein (2 nM); aa1-188 KRAS WT
As to the kind of experiment: HTRF nucleotide exchange assay (NEA), KRAS G13D. The protocol:
(§2) The capacity of compounds to bind KRAS G12D, other KRAS mutants and wildtype RAS isoforms was quantified using a HTRF nucleotide exchange assay. Recombinant human RAS protein (2 nM; aa1-188 KRAS WT, HRAS WT, NRAS WT, or KRAS containing the containing the G12D, G13D or Q61H amino acid substitutions, or 4 nM KRAS; aa1-188 containing the G12V, G12C, G12A or G12S amino acid substitution, an N-terminal 6×His-tag and leader sequence), and 2 nM Europium-labeled anti-6×His antibody were mixed in assay buffer (10 mM HEPES pH7.3, 150 mM NaCl, 5 mM MgCl2, 0.05% BSA, 0.0025% NP-40 and 100 mM KF) with various concentrations of compound in a 384-well plate and a volume of 5 uL. After a 60-minute incubation at room temperature, 5 ul of 200 nM EDA-GTP-DY647P1 (diluted in assay buffer) was added to the plate. Following 30-minute incubation at room temperature, time-resolved fluorescence was measured on a PerkinElmer Envision plate reader. DMSO (0.3%) and unlabeled […] (1 μM) or equivalent tool compound were used to generate the Max and Min assay signals, respectively. Data was analysed using a four-parameter logistic model to calculate IC50 values, with at least two independent replicates were performed for each compound.

The target in assay [6] is T6, KRAS Q61H (Homo sapiens, UniProt P01116, Q61H).
T6 construct: Recombinant human RAS protein (2 nM); aa1-188 KRAS WT
As to the kind of experiment: HTRF nucleotide exchange assay (NEA), KRAS Q61H. The procedure: as §2

In assay [7] the target is T7, KRAS G12S (Homo sapiens, UniProt P01116, G12S).
T7 construct: 4 nM KRAS; aa1-188 containing the G12V, G12C, G12A or G12S amino acid substitution
The assay can be described thus: HTRF nucleotide exchange assay (NEA), KRAS G12S. The procedure:
as §2

Assay [8] concerns the target T8, KRAS G12A (Homo sapiens, UniProt P01116, G12A).
T8 construct: 4 nM KRAS; aa1-188 containing the G12V, G12C, G12A or G12S amino acid substitution
The assay can be described thus: HTRF nucleotide exchange assay (NEA), KRAS G12A. The procedure: as §2

[9] abbreviates: recombinant human KRAS G12S aa1-188, 4 nM, lowest class = % inhibition at 10 μM.
Setting [10] is: recombinant human KRAS G13D aa1-188, 2 nM, lowest class = % inhibition at 10 μM.

Like-named read-outs stand apart in the source and are kept apart here.

T1 sequence (P01116 1-188 isoform P01116-2 G12D): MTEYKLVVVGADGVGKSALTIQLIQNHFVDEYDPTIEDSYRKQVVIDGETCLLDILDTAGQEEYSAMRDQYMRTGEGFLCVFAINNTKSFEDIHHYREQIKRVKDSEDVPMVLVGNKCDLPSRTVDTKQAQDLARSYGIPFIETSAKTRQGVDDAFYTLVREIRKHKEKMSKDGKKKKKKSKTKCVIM
T2 sequence (P01116 1-188 isoform P01116-2): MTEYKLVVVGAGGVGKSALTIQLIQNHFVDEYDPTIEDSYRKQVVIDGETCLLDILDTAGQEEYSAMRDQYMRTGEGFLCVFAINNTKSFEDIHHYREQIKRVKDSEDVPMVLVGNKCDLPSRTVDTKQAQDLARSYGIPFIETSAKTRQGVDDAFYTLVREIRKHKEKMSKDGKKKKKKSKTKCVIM
T4 sequence (P01116 1-188 isoform P01116-2 G12V): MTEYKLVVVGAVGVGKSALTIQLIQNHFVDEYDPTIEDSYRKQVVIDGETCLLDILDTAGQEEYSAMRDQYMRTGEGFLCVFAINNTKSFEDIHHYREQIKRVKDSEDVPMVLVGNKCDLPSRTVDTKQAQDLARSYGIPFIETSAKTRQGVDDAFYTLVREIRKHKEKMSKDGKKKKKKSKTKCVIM
T3 sequence (P01116 1-188 isoform P01116-2 G12C): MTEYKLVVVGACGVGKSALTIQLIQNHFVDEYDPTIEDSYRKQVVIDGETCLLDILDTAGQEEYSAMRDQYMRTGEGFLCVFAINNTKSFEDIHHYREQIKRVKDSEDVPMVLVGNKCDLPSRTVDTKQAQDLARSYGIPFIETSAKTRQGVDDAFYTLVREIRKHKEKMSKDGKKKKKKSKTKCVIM
T7 sequence (P01116 1-188 isoform P01116-2 G12S): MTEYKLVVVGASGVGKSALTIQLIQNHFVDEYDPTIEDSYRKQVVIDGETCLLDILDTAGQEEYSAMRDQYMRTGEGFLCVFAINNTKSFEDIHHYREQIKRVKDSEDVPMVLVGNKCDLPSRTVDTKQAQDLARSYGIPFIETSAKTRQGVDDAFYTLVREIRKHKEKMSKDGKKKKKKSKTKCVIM
T5 sequence (P01116 1-188 isoform P01116-2 G13D): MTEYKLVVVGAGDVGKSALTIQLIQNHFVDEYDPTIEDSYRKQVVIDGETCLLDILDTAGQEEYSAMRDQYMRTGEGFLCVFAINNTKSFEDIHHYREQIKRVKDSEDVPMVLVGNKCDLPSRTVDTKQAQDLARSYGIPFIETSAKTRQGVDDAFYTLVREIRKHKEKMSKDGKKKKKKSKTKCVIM
T8 sequence (P01116 1-188 isoform P01116-2 G12A): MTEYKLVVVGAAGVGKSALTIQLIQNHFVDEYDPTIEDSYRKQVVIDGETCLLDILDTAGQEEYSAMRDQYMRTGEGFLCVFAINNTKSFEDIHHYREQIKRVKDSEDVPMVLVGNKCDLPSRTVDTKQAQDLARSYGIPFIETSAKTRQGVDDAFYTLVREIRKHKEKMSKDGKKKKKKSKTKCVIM
T6 sequence (P01116 1-188 isoform P01116-2 Q61H): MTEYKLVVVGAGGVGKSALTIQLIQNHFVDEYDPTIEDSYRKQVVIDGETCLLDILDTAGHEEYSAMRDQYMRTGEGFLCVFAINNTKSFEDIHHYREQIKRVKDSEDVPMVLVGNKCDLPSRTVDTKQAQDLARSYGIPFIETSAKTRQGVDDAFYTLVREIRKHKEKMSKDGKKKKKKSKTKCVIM

Turning to `Oc1cc(-c2ncc3c(N4CC5CNCC5C4)nc(OCC45CCCN4CCC5)nc3c2F)c2ccccc2c1` (centres unmarked) [Example 1, 4-[4-(2,3,3a,4,6,6a-hexahydro-1H-pyrrolo[3,4-c]pyrrol-5-yl)-8-fluoro-2-(1,2,3,5,6,7-hexahydropyrrolizin-8-ylmethoxy)pyrido[4,3-d]pyrimidin-7-yl]naphthalen-2-ol], the IC50 in assay [1] was in the range of 10 to 100 nM; in assay [2] it was 100 to 10000 nM; in assay [3] it was 100 to 10000 nM; in assay [4] it was 100 to 10000 nM; in assay [5], 100 to 10000 nM; in assay [6], 100 to 10000 nM.

For `Oc1cc(-c2ncc3c(N4CCOC5(CCCC5)C4)nc(OCC45CCCN4CCC5)nc3c2F)c2ccccc2c1` [Example 4, 4-[8-fluoro-2-(1,2,3,5,6,7-hexahydropyrrolizin-8-ylmethoxy)-4-(6-oxa-9-azaspiro[4.5]-decan-9-yl)pyrido[4,3-d]pyrimidin-7-yl]naphthalen-2-ol], the IC50 in assay [1] was 100 to 10000 nM; in assay [2], 100 to 10000 nM; in assay [3], 100 to 10000 nM; in assay [4] it was 100 to 10000 nM; in assay [7] (setting [9]) it was over 10000 nM; in assay [8], 100 to 10000 nM. For the same compound, in assay [5] (setting [10]), the half-maximal inhibitory concentration (IC50) was over 10000 nM.

Regarding `Oc1cc(-c2ncc3c(N4CCC5(CCOC5)CC4)nc(OCC45CCCN4CCC5)nc3c2F)c2ccccc2c1` [Example 8, 4-[8-fluoro-2-(1,2,3,5,6,7-hexahydropyrrolizin-8-ylmethoxy)-4-(2-oxa-8-azaspiro[4.5]decan-8-yl)pyrido[4,3-d]pyrimidin-7-yl]naphthalen-2-ol], the IC50 in assay [1], in assay [2], in assay [3], in assay [4], in assay [5] and in assay [6] was 100 to 10000 nM throughout.

As to `Oc1cc(-c2ncc3c(NCC4CCOCC4)nc(OCC45CCCN4CCC5)nc3c2F)c2ccccc2c1` [Example 9, 4-[8-fluoro-2-(1,2,3,5,6,7-hexahydropyrrolizin-8-ylmethoxy)-4-(tetrahydropyran-4-ylmethylamino)pyrido[4,3-d]pyrimidin-7-yl]naphthalen-2-ol], the IC50 in assay [1], in assay [2], in assay [3], in assay [4], in assay [7] and in assay [8] was 100 to 10000 nM each time. In addition, in assay [5] (setting [10]), the IC50 was over 10000 nM.

With `O=C1CN(c2nc(OCC34CCCN3CCC4)nc3c(F)c(-c4cc(O)cc5ccccc45)ncc23)CCN1` [Example 10, 4-[8-fluoro-2-(1,2,3,5,6,7-hexahydropyrrolizin-8-ylmethoxy)-7-(3-hydroxy-1-naphthyl)pyrido[4,3-d]pyrimidin-4-yl]piperazin-2-one], the IC50 in assay [1], in assay [2], in assay [3], in assay [4], in assay [7] and in assay [8] was 100 to 10000 nM in each case. Moreover, the IC50 in assay [5] (setting [10]) is over 10000 nM.

Consider `O=C1CCN(c2nc(OCC34CCCN3CCC4)nc3c(F)c(-c4cc(O)cc5ccccc45)ncc23)CCN1` [Example 13], for which the IC50 in assay [1] is 10 to 100 nM; in assay [2] it was 100 to 10000 nM; in assay [3] it was 100 to 10000 nM; in assay [4], 100 to 10000 nM; in assay [7], 100 to 10000 nM; in assay [8] it was 100 to 10000 nM. In assay [5] (setting [10]), the IC50 is over 10000 nM.

As for `O=C1CN(c2nc(OCC34CCCN3CCC4)nc3c(F)c(-c4cc(O)cc5ccccc45)ncc23)CCCN1` [Example 14, 4-[8-fluoro-2-(1,2,3,5,6,7-hexahydropyrrolizin-8-ylmethoxy)-7-(3-hydroxy-1-naphthyl)pyrido[4,3-d]pyrimidin-4-yl]-1,4-diazepan-2-one], the IC50 in assay [1] lay in the range of 10 to 100 nM; in assay [2] it was 100 to 10000 nM; in assay [3], 10 to 100 nM; in assay [4] it was 10 to 100 nM; in assay [7], 100 to 10000 nM; in assay [8], 100 to 10000 nM. Besides, the IC50 in assay [5] (setting [10]) was over 10000 nM.

In the case of `CSCCCN(C)c1nc(OCC23CCCN2CCC3)nc2c(F)c(-c3cc(O)cc4ccccc34)ncc12` [Example 27, 4-[8-fluoro-2-(1,2,3,5,6,7-hexahydropyrrolizin-8-ylmethoxy)-4-[methyl(3-methylsulfanylpropyl)amino]pyrido[4,3-d]pyrimidin-7-yl]naphthalen-2-ol], the IC50 was 100 to 10000 nM in assay [1]; 100 to 10000 nM in assay [2]; 100 to 10000 nM in assay [3]; 100 to 10000 nM in assay [7]; 100 to 10000 nM in assay [8]; over 10000 nM in assay [5] (setting [10]).

Turning to `COCC(C)CNc1nc(OCC23CCCN2CCC3)nc2c(F)c(-c3cc(O)cc4ccccc34)ncc12` (centres unmarked) [Example 31, 4-[8-fluoro-2-(1,2,3,5,6,7-hexahydropyrrolizin-8-ylmethoxy)-4-[(3-methoxy-2-methyl-propyl)amino]pyrido [4,3-d]pyrimidin-7-yl]naphthalen-2-ol], the IC50 in assay [1] was 100 to 10000 nM; in assay [2], 100 to 10000 nM; in assay [7], 100 to 10000 nM; in assay [8], 100 to 10000 nM; in assay [5] (setting [10]) it was over 10000 nM.

Consider `COC(C)CCNc1nc(OCC23CCCN2CCC3)nc2c(F)c(-c3cc(O)cc4ccccc34)ncc12` (centres unmarked) [Example 32, 4-[8-fluoro-2-(1,2,3,5,6,7-hexahydropyrrolizin-8-ylmethoxy)-4-(3-methoxybutylamino)pyrido[4,3-d]pyrimidin-7-yl]naphthalen-2-ol], for which the concentration for half-maximal inhibition (IC50) was 100 to 10000 nM in assay [1]; 100 to 10000 nM in assay [2]; 100 to 10000 nM in assay [7]; 100 to 10000 nM in assay [8]; over 10000 nM in assay [5] (setting [10]).

As to `COCC1CCN(c2nc(OCC34CCCN3CCC4)nc3c(F)c(-c4cc(O)cc5ccccc45)ncc23)C1` (centres unmarked) [Example 33, 4-[8-fluoro-2-(1,2,3,5,6,7-hexahydropyrrolizin-8-ylmethoxy)-4-[3-(methoxymethyl)pyrrolidin-1-yl]pyrido [4,3-d]pyrimidin-7-yl]naphthalen-2-ol], the IC50 in assay [1] is 100 to 10000 nM; in assay [2], 100 to 10000 nM; in assay [7] (setting [9]) it was over 10000 nM; in assay [8] it was 100 to 10000 nM; in assay [5] (setting [10]), over 10000 nM.

Turning to `Oc1cc(-c2ncc3c(N4CCCCC4)nc(OCC45CCCN4CCC5)nc3c2F)c2ccccc2c1` [Example 34, 4-[8-fluoro-2-(1,2,3,5,6,7-hexahydropyrrolizin-8-ylmethoxy)-4-(1-piperidyl)pyrido[4,3-d]pyrimidin-7-yl]naphthalen-2-ol], the IC50 in assay [1] lay within 10 to 100 nM; in assay [2], 10 to 100 nM; in assay [3], 10 to 100 nM; in assay [4], 10 to 100 nM; in assay [7], 100 to 10000 nM; in assay [8], 10 to 100 nM. The IC50 in assay [5] (setting [10]) was over 10000 nM.

As to `Oc1cc(-c2ncc3c(NC4CCCCCC4)nc(OCC45CCCN4CCC5)nc3c2F)c2ccccc2c1` [Example 36, 4-[4-(cycloheptylamino)-8-fluoro-2-(1,2,3,5,6,7-hexahydropyrrolizin-8-ylmethoxy)pyrido [4,3-d]pyrimidin-7-yl]naphthalen-2-ol], the 50% inhibitory concentration (IC50) was 100 to 10000 nM in assay [1]; 100 to 10000 nM in assay [2]; over 10000 nM in assay [7] (setting [9]); 100 to 10000 nM in assay [8]; over 10000 nM in assay [5] (setting [10]).

Broadly, the IC50 is the concentration that inhibits the measured activity by half.
